Experimental data: publication PMC6430017, “Structural and chemical insights into the covalent-allosteric inhibition of the protein kinase Akt” (Chemical Science, 2019)
Like-named read-outs stand apart in the source and are kept apart here.

Assays:
Assay in all cases: SelectScreen Z'LYTE kinase profiling
Assay type in all cases: biochemical
PRKCA (PKC alpha) = PRKCA (PKC alpha) (Homo sapiens, UniProt P17252); settings: ATP at apparent KM
Description: (§1) protein kinases at a compound concentration of 1 µM. Measurements were performed in duplicates
(§2) and at the particular apparent ATP KM of each individual kinase employing the activity based Z’LYTE®
(§3) kinase assay of the SelectScreen® Kinase Profiling Services (ThermoFisher Scientific).
(§4) kinases at a compound concentration of 1 µM. Measurements were performed in duplicates and at
(§5) the particular apparent ATP KM of each individual kinase employing the activity based Z’LYTE® kinase
(§6) assay of the SelectScreen® Kinase Profiling Services (ThermoFisher Scientific).

PRKX = target: T1, PRKX (Homo sapiens, UniProt P51817); settings: ATP at apparent KM
T1 sequence (P51817 1-358): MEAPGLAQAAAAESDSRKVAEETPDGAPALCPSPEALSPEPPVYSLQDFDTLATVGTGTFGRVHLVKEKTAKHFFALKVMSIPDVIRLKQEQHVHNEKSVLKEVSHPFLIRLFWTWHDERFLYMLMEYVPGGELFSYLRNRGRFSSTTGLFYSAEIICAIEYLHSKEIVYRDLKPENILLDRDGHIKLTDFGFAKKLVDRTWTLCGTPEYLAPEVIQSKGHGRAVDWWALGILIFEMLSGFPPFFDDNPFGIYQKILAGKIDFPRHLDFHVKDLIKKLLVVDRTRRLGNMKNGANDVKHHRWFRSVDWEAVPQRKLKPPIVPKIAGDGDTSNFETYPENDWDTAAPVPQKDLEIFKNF
Description: as §1, §2, §3, §4, §5, §6

NTRK2 (TRKB) = NTRK2 (TRKB) (Homo sapiens, UniProt Q16620); settings: ATP at apparent KM
Chain of NTRK2 (TRKB) (Q16620 32-822): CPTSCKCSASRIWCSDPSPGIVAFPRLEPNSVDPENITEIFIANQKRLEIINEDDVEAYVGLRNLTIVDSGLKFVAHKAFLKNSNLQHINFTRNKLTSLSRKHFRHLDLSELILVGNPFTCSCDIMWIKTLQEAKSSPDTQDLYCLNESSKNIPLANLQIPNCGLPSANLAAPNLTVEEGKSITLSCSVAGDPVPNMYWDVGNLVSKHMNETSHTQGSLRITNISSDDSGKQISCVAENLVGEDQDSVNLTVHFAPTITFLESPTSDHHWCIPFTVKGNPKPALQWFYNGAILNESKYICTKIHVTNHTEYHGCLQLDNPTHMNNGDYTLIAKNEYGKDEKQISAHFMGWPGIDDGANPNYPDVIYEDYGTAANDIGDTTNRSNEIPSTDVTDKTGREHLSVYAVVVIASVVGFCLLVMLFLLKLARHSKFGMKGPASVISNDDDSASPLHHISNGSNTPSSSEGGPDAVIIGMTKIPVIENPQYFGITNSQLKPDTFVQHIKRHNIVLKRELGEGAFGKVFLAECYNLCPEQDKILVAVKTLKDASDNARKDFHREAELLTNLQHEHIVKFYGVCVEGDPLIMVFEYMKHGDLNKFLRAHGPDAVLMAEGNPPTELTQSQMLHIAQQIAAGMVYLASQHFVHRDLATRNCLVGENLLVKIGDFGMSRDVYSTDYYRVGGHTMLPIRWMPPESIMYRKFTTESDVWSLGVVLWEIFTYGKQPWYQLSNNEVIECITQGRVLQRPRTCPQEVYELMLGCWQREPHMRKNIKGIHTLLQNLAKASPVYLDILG
Description: as §1, §2, §3, §4, §5, §6

SYK = SYK (Homo sapiens, UniProt P43405); settings: ATP at apparent KM
Description: as §1, §2, §3, §4, §5, §6

DNA-PK = DNA-PK (Homo sapiens, UniProt P78527); settings: ATP at apparent KM
Description: as §1, §2, §3, §4, §5, §6

PTK2 (FAK) = PTK2 (FAK) (Homo sapiens, UniProt Q05397); settings: ATP at apparent KM
Chain of PTK2 (FAK) (Q05397 whole entry): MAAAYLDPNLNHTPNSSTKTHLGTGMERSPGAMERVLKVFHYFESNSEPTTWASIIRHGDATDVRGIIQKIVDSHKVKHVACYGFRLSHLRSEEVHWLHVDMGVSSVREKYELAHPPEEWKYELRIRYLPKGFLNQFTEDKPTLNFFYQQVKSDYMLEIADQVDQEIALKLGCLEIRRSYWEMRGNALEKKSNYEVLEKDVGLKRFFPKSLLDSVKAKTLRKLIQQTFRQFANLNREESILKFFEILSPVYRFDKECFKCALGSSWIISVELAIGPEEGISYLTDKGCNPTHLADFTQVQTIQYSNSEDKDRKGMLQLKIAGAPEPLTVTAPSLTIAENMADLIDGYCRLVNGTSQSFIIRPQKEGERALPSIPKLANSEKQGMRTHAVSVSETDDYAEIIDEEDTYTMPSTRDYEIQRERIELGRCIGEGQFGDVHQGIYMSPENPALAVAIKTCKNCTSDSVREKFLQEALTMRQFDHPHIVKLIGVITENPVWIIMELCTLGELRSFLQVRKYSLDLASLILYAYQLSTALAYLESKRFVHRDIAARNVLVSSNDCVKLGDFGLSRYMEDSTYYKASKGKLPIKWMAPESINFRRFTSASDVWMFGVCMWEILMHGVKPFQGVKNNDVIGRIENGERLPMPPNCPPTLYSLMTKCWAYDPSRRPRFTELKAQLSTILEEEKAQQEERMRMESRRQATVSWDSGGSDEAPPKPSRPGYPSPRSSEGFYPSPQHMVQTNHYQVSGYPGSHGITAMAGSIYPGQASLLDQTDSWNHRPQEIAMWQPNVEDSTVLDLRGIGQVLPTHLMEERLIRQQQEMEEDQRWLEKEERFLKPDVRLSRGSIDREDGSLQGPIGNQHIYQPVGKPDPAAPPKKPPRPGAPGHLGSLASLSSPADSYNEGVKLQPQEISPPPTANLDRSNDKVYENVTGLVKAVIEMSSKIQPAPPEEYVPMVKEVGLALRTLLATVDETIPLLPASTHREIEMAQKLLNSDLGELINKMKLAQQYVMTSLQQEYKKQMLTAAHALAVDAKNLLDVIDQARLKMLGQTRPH
Description: as §1, §2, §3, §4, §5, §6

MET (cMet) = MET (cMet) (Homo sapiens, UniProt P08581); settings: ATP at apparent KM
Description: as §1, §2, §3, §4, §5, §6

ABL1 = ABL1 (Homo sapiens, UniProt P00519); settings: ATP at apparent KM
Chain of ABL1 (P00519 whole entry): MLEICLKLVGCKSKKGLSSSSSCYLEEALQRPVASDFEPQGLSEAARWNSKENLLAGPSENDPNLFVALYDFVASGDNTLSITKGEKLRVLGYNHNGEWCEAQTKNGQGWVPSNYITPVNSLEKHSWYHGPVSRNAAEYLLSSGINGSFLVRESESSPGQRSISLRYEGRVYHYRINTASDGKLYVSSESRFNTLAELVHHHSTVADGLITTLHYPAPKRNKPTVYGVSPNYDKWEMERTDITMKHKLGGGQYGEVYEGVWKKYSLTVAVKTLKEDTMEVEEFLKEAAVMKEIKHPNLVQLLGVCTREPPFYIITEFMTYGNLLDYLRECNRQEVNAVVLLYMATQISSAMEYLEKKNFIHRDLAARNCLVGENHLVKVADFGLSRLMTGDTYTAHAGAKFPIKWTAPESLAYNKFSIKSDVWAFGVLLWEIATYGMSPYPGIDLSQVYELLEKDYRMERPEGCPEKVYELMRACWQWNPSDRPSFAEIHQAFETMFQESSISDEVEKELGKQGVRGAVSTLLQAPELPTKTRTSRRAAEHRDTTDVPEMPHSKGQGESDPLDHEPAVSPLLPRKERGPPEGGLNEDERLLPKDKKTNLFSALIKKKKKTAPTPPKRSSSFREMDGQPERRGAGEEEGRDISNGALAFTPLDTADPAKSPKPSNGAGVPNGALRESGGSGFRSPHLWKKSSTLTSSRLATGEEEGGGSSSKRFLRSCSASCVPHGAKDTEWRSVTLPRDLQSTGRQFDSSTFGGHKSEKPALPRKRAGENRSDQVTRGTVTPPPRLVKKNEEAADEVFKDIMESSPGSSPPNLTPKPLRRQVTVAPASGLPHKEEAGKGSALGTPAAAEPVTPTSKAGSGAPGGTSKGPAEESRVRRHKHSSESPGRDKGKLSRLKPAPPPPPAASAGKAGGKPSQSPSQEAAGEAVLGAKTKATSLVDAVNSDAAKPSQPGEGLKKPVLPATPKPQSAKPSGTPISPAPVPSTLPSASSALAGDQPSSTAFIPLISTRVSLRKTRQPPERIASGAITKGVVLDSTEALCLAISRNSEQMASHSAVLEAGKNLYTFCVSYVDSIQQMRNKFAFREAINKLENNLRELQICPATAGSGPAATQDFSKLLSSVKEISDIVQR
Description: as §1, §2, §3, §4, §5, §6

AKT2 (PKB beta) = AKT2 (PKB beta) (Homo sapiens, UniProt P31751)
Chain of AKT2 (PKB beta) (P31751 whole entry): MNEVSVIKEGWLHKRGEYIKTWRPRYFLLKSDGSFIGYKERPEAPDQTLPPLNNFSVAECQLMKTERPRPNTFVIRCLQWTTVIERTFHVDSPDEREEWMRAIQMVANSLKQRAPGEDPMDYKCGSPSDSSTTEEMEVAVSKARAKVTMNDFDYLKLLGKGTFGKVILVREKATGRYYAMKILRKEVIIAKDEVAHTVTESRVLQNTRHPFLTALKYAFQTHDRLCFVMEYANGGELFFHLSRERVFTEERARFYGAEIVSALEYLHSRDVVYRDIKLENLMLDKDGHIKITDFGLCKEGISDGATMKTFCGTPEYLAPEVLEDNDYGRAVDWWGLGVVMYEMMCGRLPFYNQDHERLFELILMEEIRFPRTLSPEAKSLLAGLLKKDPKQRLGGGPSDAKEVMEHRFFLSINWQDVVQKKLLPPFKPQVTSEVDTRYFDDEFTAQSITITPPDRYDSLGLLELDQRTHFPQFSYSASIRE

PRKCH (PKC eta) = PRKCH (PKC eta) (Homo sapiens, UniProt P24723); settings: ATP at apparent KM
Chain of PRKCH (PKC eta) (P24723 whole entry): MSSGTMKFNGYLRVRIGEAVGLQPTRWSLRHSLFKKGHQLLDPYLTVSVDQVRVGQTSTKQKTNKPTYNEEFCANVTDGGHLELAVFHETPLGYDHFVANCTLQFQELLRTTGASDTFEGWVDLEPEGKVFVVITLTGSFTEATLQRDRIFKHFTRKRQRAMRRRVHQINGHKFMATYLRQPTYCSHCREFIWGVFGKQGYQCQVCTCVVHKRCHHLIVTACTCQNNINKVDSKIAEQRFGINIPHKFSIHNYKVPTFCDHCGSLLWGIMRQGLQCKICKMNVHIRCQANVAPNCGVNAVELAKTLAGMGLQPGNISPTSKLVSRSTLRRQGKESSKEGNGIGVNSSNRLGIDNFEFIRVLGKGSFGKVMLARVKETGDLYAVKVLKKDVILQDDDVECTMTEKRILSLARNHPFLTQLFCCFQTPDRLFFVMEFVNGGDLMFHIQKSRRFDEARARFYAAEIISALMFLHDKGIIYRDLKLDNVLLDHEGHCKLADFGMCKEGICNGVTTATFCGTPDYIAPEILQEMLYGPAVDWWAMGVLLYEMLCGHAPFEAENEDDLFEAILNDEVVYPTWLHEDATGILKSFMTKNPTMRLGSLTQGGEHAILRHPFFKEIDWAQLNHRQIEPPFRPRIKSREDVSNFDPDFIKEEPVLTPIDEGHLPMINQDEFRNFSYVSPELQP
Description: as §1, §2, §3, §4, §5, §6

PRKD2 (PKD2) = target: T2, PRKD2 (PKD2) (Homo sapiens, UniProt Q9BZL6); settings: ATP at apparent KM
T2 sequence (Q9BZL6 1-878): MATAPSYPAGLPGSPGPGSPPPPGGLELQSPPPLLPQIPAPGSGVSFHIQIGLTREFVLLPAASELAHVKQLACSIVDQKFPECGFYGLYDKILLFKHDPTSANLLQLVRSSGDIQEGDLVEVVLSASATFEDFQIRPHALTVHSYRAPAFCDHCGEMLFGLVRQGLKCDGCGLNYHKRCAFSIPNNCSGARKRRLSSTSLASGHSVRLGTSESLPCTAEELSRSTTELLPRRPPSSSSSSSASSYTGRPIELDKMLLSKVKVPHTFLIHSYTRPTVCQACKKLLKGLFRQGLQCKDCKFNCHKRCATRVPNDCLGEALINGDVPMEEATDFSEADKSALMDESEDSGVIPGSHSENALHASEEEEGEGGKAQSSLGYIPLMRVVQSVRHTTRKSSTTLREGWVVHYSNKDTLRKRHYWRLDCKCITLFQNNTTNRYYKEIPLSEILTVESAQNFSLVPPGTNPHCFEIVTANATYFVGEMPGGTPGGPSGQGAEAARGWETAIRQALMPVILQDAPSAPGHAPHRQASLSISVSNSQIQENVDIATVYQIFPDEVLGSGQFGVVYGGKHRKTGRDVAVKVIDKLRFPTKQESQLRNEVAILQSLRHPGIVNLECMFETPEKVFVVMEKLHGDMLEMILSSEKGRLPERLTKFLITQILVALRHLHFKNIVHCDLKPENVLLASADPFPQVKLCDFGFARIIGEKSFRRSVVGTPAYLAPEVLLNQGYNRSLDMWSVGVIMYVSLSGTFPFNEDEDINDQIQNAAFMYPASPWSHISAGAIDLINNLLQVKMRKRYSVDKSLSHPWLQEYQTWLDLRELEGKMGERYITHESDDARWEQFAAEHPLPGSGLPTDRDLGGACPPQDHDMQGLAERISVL
Description: as §1, §2, §3, §4, §5, §6

PRKCG (PKC gamma) = PRKCG (PKC gamma) (Homo sapiens, UniProt P05129); settings: ATP at apparent KM
Description: as §1, §2, §3, §4, §5, §6

CHEK1 (CHK1) = target: T3, CHEK1 (CHK1) (Homo sapiens, UniProt O14757); settings: ATP at apparent KM
T3 sequence (O14757 1-476): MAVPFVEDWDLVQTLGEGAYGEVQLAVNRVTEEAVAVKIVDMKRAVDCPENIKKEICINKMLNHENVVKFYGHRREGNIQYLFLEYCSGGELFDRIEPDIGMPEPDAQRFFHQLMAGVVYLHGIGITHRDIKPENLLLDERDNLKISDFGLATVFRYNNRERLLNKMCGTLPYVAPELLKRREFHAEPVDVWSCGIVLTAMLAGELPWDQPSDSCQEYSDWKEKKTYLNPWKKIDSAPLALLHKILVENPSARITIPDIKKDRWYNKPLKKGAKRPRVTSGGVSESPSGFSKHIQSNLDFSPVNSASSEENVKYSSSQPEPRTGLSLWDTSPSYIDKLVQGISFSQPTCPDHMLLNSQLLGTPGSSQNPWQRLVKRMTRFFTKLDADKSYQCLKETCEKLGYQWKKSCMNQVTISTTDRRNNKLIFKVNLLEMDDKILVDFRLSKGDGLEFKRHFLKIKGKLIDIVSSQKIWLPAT
Description: as §1, §2, §3, §4, §5, §6

GSK3B (GSK3 beta) = GSK3B (GSK3 beta) (Homo sapiens, UniProt P49841); settings: ATP at apparent KM
Description: as §1, §2, §3, §4, §5, §6

Q: With `C=CC(=O)Nc1cccc(C(=O)NC2CCN(Cc3ccc(-c4nc5cc[nH]c(=O)c5cc4-c4ccccc4)cc3)CC2)c1` [30b] as the compound, how does the inhibition at 1 µM (PRKCA (PKC alpha)) read?
A: 27%

Q: What about the inhibition at 1 µM (PRKX) of the same compound?
A: -6%

Q: What about the inhibition at 1 µM (NTRK2 (TRKB)) of the same compound?
A: 8%

Q: What about the inhibition at 1 µM (SYK) of the same compound?
A: 15%

Q: What about the inhibition at 1 µM (DNA-PK) of the same compound?
A: 8%

Q: What about the inhibition at 1 µM (PTK2 (FAK)) of the same compound?
A: -4%

Q: What about the inhibition at 1 µM (MET (cMet)) of the same compound?
A: 0%

Q: And the inhibition at 1 µM (ABL1)?
A: 3%

Q: And the inhibition at 1 µM (AKT2 (PKB beta))?
A: 76%

Q: What about the inhibition at 1 µM (PRKCH (PKC eta)) of the same compound?
A: 14%

Q: And the inhibition at 1 µM (PRKD2 (PKD2))?
A: 4%

Q: What about the inhibition at 1 µM (PRKCG (PKC gamma)) of the same compound?
A: 0%

Q: What about the inhibition at 1 µM (CHEK1 (CHK1)) of the same compound?
A: 9%

Q: And the inhibition at 1 µM (GSK3B (GSK3 beta))?
A: 29%

Q: For `C=CC(=O)Nc1cc(NC(=O)NC2CCN(Cc3ccc(-c4nc5cc[nH]c(=O)c5cc4-c4ccccc4)cc3)CC2)ccc1Cl` [compound 27], which inhibition at 1 µM (PRKCA (PKC alpha)) is on record?
A: 16%

Q: What about the inhibition at 1 µM (PRKX) of the same compound?
A: 3%

Q: And the inhibition at 1 µM (NTRK2 (TRKB))?
A: 1%

Q: What about the inhibition at 1 µM (SYK) of the same compound?
A: 5%

Q: And the inhibition at 1 µM (DNA-PK)?
A: 5%

Q: And the inhibition at 1 µM (PTK2 (FAK))?
A: -1%

Q: What about the inhibition at 1 µM (MET (cMet)) of the same compound?
A: 4%

Q: What about the inhibition at 1 µM (ABL1) of the same compound?
A: 3%

Q: What about the inhibition at 1 µM (AKT2 (PKB beta)) of the same compound?
A: 80%

Q: What about the inhibition at 1 µM (PRKCH (PKC eta)) of the same compound?
A: 21%

Q: And the inhibition at 1 µM (PRKD2 (PKD2))?
A: 5%

Q: And the inhibition at 1 µM (PRKCG (PKC gamma))?
A: -6%

Q: What about the inhibition at 1 µM (CHEK1 (CHK1)) of the same compound?
A: 8%

Q: And the inhibition at 1 µM (GSK3B (GSK3 beta))?
A: 18%

Q: With `C=CC(=O)Nc1ccc2c(c1)n(C1CCN(Cc3ccc(-c4nc5cc[nH]c(=O)c5cc4-c4ccccc4)cc3)CC1)c(=O)n2C` [24b] as the compound, how does the inhibition at 1 µM (PRKCA (PKC alpha)) read?
A: 23%

Q: And the inhibition at 1 µM (PRKX)?
A: -1%

Q: And the inhibition at 1 µM (NTRK2 (TRKB))?
A: 0%

Q: What about the inhibition at 1 µM (SYK) of the same compound?
A: 4%

Q: And the inhibition at 1 µM (DNA-PK)?
A: 7%

Q: And the inhibition at 1 µM (PTK2 (FAK))?
A: -20%

Q: What about the inhibition at 1 µM (MET (cMet)) of the same compound?
A: 1%

Q: And the inhibition at 1 µM (ABL1)?
A: 2%

Q: And the inhibition at 1 µM (AKT2 (PKB beta); 1 µM, ATP at apparent KM, read-out: % inhibition)?
A: 97%

Q: And the inhibition at 1 µM (PRKCH (PKC eta))?
A: 7%

Q: And the inhibition at 1 µM (PRKD2 (PKD2))?
A: 3%

Q: What about the inhibition at 1 µM (PRKCG (PKC gamma)) of the same compound?
A: -3%

Q: What about the inhibition at 1 µM (CHEK1 (CHK1)) of the same compound?
A: -3%

Q: And the inhibition at 1 µM (GSK3B (GSK3 beta))?
A: 22%
